Measurements: patent publication US20050267077A1 (priority 2004, published 2005)

Assays:
rats = assay: Object Recognition Task (episodic memory), 6 hour delay; conditions: for performance in the object recognition task: 6 h delay; for Recognition Score: vehicle 60%; for disruption of behavior: first four rats
Protocol: It is based on rodents' natural preference for exploring novel objects over familiar objects. The experimental protocol is as follows:
The experiment takes place over a total of 4 days. Objects used for testing included square 60-mL clear glass tablet bottles with a black phenolic cap (“bottle”) or […] high, 1¼-inch interior diameter aluminum electrical metal tubing conduit couplings (“conduit”). On the first 3 days, the rat was placed into a test box for 15 minutes of habituation. On the fourth day, two identical copies of the same object were arranged in the box, one in each of the near corners about ½ inch from the walls—two bottles for half of the rats, two conduits for the other half. The rat was brought to the test room, placed in the middle of the box facing the center of the back wall, and allowed to explore the objects for a 3-minute information trial, after which it was returned to its home cage and to the housing room. After a specified delay, one copy of the original object (“familiar,” not the copy already encountered) and one copy of the other object (“novel”) were arranged in the near corners, with positions counterbalanced to avoid bias, and the rat was placed back in the box for a recognition trial. […] The result of scoring is the time spent with the novel object, expressed as a %-age number (the “Recognition Score”)
Normal rats spend more time exploring the novel object, indicating memory for the sample object. Increases in the length of the delay, however, reduce the rat's ability to distinguish between the two objects in the recognition trial. For the testing of cognition-enhancing agents, a delay or inter-trial interval (ITI) is typically chosen at which complete forgetting normally occurs (i.e. where the time spent exploring both the novel and familiar object is equal), as this allows for considerable room for improvement in performance.
Both drugs were administered by intraperitoneal (IP) injection.
To generate a dose-effect curve for galantamine, various doses of this compound were administered to rats by IP injection 30 minutes prior to the information trial and compared to vehicle (0.5%-methyl cellulose)-treated controls (FIG. 7A).

Long-Evans rats = assay: 8 hour retention test on a twelve-arm radial maze (spatial memory); assay type: in vivo, rat; conditions: 60 min prior to information session, vs vehicle (p<0.02)
Protocol: 12-arm maze test: Behavioral testing was conducted by an experimenter who was blind to drug treatment. 12 Long-Evans rats trained to use a win-shift strategy were given an information trial. During the information trial, 5 of the 12 arms of the 12 arm maze were blocked so that rats were not able to consume food from those blocked arms but could obtain food from each of the 7 open arms. After this session rats were moved to their home cage and placed back in the animal holding room. […] A retroactive memory error is made when the rat enters an arm that was […] on the information trial.
. Physiological saline (NaCl) was used as vehicle. […]

[1] = cited from earlier work

Compound: COc1cc2c(cc1OC)C(=O)C(CC1CCN(Cc3ccccc3)CC1)C2 (racemic) [donepezil, (±)-2,3-dihydro-5,6-dimethoxy-2-[[1-(phenylmethyl)-4-piperidinyl]methyl]-1H-inden-1-one]
- performance in the object recognition task (rats; donepezil 1.7 mg/kg IP, 30 min prior to information trial): significantly improved performance
- adverse side effects in the rat (rats; donepezil doses higher than 1.7 mg/kg IP): began to produce adverse side effects
- retention test performance on the 12-arm maze (Long-Evans rats; 3 mg/kg donepezil IP): improved performance

Compound: CCCCP(=O)(O)CCCN [ABPA, 3-aminopropyl-(n-butyl)-phosphinic acid]
- performance in the object recognition task (rats; ABPA 3 and 30 mg/kg IP, 30 min prior to information trial, vs saline): no beneficial effect
- performance in the object recognition task (rats; ABPA 10, 100, 170, and 300 mg/kg IP, 30 min prior to information trial, vs saline): significantly enhanced performance
- Recognition Score (rats; ABPA alone 3 mg/kg, Example 5 rivastigmine interaction study): 58%
- Recognition Score (rats; ABPA alone 3 mg/kg, Example 6 galantamine interaction study): 58%
- retention test performance on the 12-arm maze (Long-Evans rats; 150 mg/kg ABPA IP): improved performance

Compound: COc1ccc2c3c1O[C@H]1C[C@@H](O)C=C[C@@]31CCN(C)C2 [galantamine]
- disruption of behavior (rats; galantamine 3 mg/kg IP): gross disruption of behavior
- Recognition Score (rats; galantamine alone 0.17 mg/kg): 55%
- Recognition Score (rats; galantamine alone 0.3 mg/kg): 62%
- half-life in humans [1]: 5 to 6 h

Compound: CCN(C)C(=O)Oc1cccc([C@H](C)N(C)C)c1 [rivastigmine]
- disruption of behavior (rats; rivastigmine 1 mg/kg IP): grossly disrupted behavior
- effect on memory in the object recognition task (rats; rivastigmine 0.01, 0.017, 0.03, 0.056, 0.17 and 0.3 mg/kg IP, vs vehicle): no significant effect on memory
- performance in the object recognition task (rats; rivastigmine 0.1 IP, 30 min prior, vs vehicle (p=0.056)): approached a significant improvement in performance
- Recognition Score (rats; rivastigmine alone 0.01 mg/kg): 55%
- Recognition Score (rats; rivastigmine alone 0.017 mg/kg): 59%
- half-life in humans [1]: about 1.5 h
